# Reference: ChEMBL document CHEMBL1127129, “N,N-disubstituted acetamidines as high affinity sigma receptor ligands” (Bioorg Med Chem Lett, 1993)
# Target: Glutamate NMDA receptor
# Assay: The compound was evaluated for binding affinity against NMDA receptor ion-channel site using [3H]-MK 801 radioligand in rat brain membranes
# Format: cell membranes
row,Compound,IC50 [µM]
1,C/C(=N\C1CC2CCC1C2)Nc1ccccc1C (configuration not stated),80
2,C/C(=N\C1CCCCC1)NC12CC3CC(CC(C3)C1)C2,10
3,C/C(=N\C12CC3CC(CC(C3)C1)C2)NC12CC3CC(CC(C3)C1)C2,10

# Continued, values first:
row,IC50 [µM],Compound
1,10,C/C(=N\c1ccccc1C)Nc1ccccc1C
2,10,C/C(=N\C12CC3CC(CC(C3)C1)C2)Nc1ccccc1C
3,10,C/C(=N\C1CCCCC1)Nc1ccccc1C
4,9.11,C/C(=N\c1ccc(Br)cc1C)Nc1ccc(Br)cc1C
